Target: T1, GST-tagged-Wee1 kinase (Homo sapiens, UniProt P30291)
T1 construct: purchased Carnabio 05-177
Test: Wee1 time-resolved fluorescence equilibrium binding assay (displacement of Oregon Green-labeled ATP-competitive probe)
Conditions: TR-FRET probe displacement; 2 nM GST-Wee1, 300 nM probe, 1 hour incubation; read-out: Wee-1 binding (Ki nM)
Experimental: Wee1 kinase was assayed using a time-resolved fluorescence equilibrium binding assay monitoring displacement of a rapidly reversible Oregon Green-labeled ATP-competitive kinase probe (N-(2-(2-(2-(4-(4-(5-chloro-4-(2-(1-hydroxycyclobutyl)thiazol-5-yl)-1H-pyrrolo[2,3-b]pyridin-2-yl)phenyl)piperazin-1-yl)ethoxy)ethoxy)ethyl)-2′,7′-difluoro-3′,6′-dihydroxy-3-oxo-3H-spiro[isobenzofuran-1,9′-xanthene]-5-carboxamide) by competitive Wee1 inhibitors.

T1 sequence (P30291 whole entry): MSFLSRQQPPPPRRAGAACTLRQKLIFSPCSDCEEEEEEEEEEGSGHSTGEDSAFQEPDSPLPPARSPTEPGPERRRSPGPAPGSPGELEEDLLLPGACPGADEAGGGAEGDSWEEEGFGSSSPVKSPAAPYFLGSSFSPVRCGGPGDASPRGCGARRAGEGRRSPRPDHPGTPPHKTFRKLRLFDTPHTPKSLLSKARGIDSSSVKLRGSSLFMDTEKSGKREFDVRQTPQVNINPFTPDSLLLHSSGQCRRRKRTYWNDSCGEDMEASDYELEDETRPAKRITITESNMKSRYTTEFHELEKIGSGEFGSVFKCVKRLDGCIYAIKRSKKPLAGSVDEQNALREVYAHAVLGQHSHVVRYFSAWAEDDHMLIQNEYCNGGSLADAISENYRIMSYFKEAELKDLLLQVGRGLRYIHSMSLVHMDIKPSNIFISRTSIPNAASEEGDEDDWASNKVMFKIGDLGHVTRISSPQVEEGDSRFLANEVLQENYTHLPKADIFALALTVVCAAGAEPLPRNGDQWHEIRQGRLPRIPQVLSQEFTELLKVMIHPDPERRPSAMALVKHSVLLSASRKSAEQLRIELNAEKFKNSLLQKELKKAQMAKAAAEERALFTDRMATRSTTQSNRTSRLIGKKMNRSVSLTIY

Row | SMILES | Ki [nM]
1 | C=CCN1c2ccccc2-c2nc(Nc3ccc4c(c3)N(C(C)=O)CC4)ncc2S1(=O)=O [Example 5, 1-{6-[(6-allyl-5,5-dioxido-6H-pyrimido[5,4-c][2,1]benzothiazin-2-yl)amino]-2,3-dihydro-1H-indol-1-yl}ethanone] | 9
2 | C=CCN1c2ccccc2-c2nc(Nc3ccc4c(c3)NC(=O)CO4)ncc2S1(=O)=O [Example 6, 6-[(6-allyl-5,5-dioxido-6H-pyrimido[5,4-c][2,1]benzothiazin-2-yl)amino]-2H-1,4-benzoxazin-3(4H)-one] | 47
3 | C=CCN1c2ccccc2-c2nc(Nc3cccc(N4CCN(C)CC4)c3)ncc2S1(=O)=O [Example 18, 6-allyl-N-[3-(4-methylpiperazin-1-yl)phenyl]-6H-pyrimido[5,4-c][2,1]benzothiazin-2-amine 5,5-dioxide] | 4
4 | C=CCN1c2ccccc2-c2nc(Nc3ccc(-c4nc5ccccc5[nH]4)cc3)ncc2S1(=O)=O [Example 20, 6-allyl-N-[4-(1H-benzimidazol-2-yl)phenyl]-6H-pyrimido[5,4-c][2,1]benzothiazin-2-amine 5,5-dioxide] | 283
5 | C=CCN1c2ccccc2-c2nc(Nc3ccc(N4CCNCC4)cc3)ncc2S1(=O)=O [Example 25, 6-allyl-N-[4-(piperazin-1-yl)phenyl]-6H-pyrimido[5,4-c][2,1]benzothiazin-2-amine 5,5-dioxide] | 1.5
6 | CCCN1c2cc(Br)ccc2-c2nc(Nc3ccc(N4CCN(C)CC4)cc3)ncc2S1(=O)=O [Example 66, 8-bromo-N-[4-(4-methylpiperazin-1-yl)phenyl]-6-propyl-6H-pyrimido[5,4-c][2,1]benzothiazin-2-amine 5,5-dioxide] | 6
7 | CCCN1c2cc(-c3c[nH]c4ncccc34)ccc2-c2nc(Nc3ccc(N4CCN(C)CC4)cc3)ncc2S1(=O)=O [Example 77, N-[4-(4-methylpiperazin-1-yl)phenyl]-6-propyl-8-(1H-pyrrolo[2,3-b]pyridin-3-yl)-6H-pyrimido[5,4-c][2,1]benzothiazin-2-amine 5,5-dioxide] | 57
8 | CCCN1c2cc(C(=O)NCCO)ccc2-c2nc(Nc3ccc(N4CCN(C)CC4)cc3)ncc2S1(=O)=O [Example 84, N-(2-hydroxyethyl)-2-{[4-(4-methylpiperazin-1-yl)phenyl]amino}-6-propyl-6H-pyrimido[5,4-c][2,1]benzothiazine-8-carboxamide 5,5-dioxide] | 8
9 | CCCN1c2cc(C(=O)N[C@H]3CC[C@H](N)CC3)ccc2-c2nc(Nc3ccc(N4CCN(C)CC4)cc3)ncc2S1(=O)=O [Example 86, N-(trans-4-aminocyclohexyl)-2-{[4-(4-methylpiperazin-1-yl)phenyl]amino}-6-propyl-6H-pyrimido[5,4-c][2,1]benzothiazine-8-carboxamide 5,5-dioxide] | 4
10 | C=CCN1c2ccccc2-c2nc(Nc3ccc(-c4nc5cnccc5[nH]4)cc3)ncc2S1(=O)=O [Example 14, 6-allyl-N-[4-(1H-imidazo[4,5-c]pyridin-2-yl)phenyl]-6H-pyrimido[5,4-c][2,1]benzothiazin-2-amine 5,5-dioxide] | 1440
11 | CCCN1c2ccc(-c3ccccc3)cc2-c2nc(Nc3ccc(N4CCN(C)CC4)cc3)ncc2S1(=O)=O [Example 97, N-[4-(4-methylpiperazin-1-yl)phenyl]-9-phenyl-6-propyl-6H-pyrimido[5,4-c][2,1]benzothiazin-2-amine 5,5-dioxide] | 6
12 | C=CCN1c2ncccc2-c2nc(Nc3ccc(N4CCNCC4)cn3)ncc2S1(=O)=O [Example 103, N-[5-(piperazin-1-yl)pyridin-2-yl]-6-(prop-2-en-1-yl)-6H-pyrido[2,3-c]pyrimido[4,5-e][1,2]thiazin-2-amine 5,5-dioxide] | 110
13 | C=CCN1c2ncccc2-c2nc(Nc3ccc(N4CCN(C)CC4)c(C)c3)ncc2S1(=O)=O [Example 50, 6-allyl-N-[3-methyl-4-(4-methylpiperazin-1-yl)phenyl]-6H-pyrido[2,3-c]pyrimido[4,5-e][1,2]thiazin-2-amine 5,5-dioxide] | 5
14 | C=CCN1c2ccccc2-c2nc(Nc3ccncc3)ncc2S1(=O)=O [Example 27, 6-allyl-N-(pyridin-4-yl)-6H-pyrimido[5,4-c][2,1]benzothiazin-2-amine 5,5-dioxide] | 30
15 | C=CCN1c2c(C(=O)NC)cccc2-c2nc(Nc3ccc(N4CCN(C)CC4)cc3)ncc2S1(=O)=O [Example 61, 6-allyl-N-methyl-2-{[4-(4-methylpiperazin-1-yl)phenyl]amino}-6H-pyrimido[5,4-c][2,1]benzothiazine-7-carboxamide 5,5-dioxide] | 11

The remaining molecules from weak to strong by Ki, led by results:

Row | Ki [nM] | SMILES
16 | 738 | C=CCN1c2ccccc2-c2nc(Nc3ccccc3N3CCN(C)CC3)ncc2S1(=O)=O [Example 12, 6-allyl-N-[2-(4-methylpiperazin-1-yl)phenyl]-6H-pyrimido[5,4-c][2,1]benzothiazin-2-amine 5,5-dioxide]
17 | 92 | CCCN1c2cc(-c3ccccc3)ccc2-c2nc(Nc3ccc(N4CCN(C)CC4)cc3)ncc2S1(=O)=O [Example 68, N-[4-(4-methylpiperazin-1-yl)phenyl]-8-phenyl-6-propyl-6H-pyrimido[5,4-c][2,1]benzothiazin-2-amine 5,5-dioxide]
18 | 51 | C=CCN1c2ncccc2-c2nc(Nc3ccc4c(c3)NCCC4)ncc2S1(=O)=O [Example 38, 6-allyl-N-(1,2,3,4-tetrahydroquinolin-7-yl)-6H-pyrido[2,3-c]pyrimido[4,5-e][1,2]thiazin-2-amine 5,5-dioxide]
19 | 13 | CCCN1c2cc(C(=O)NC3CCCCC3)ccc2-c2nc(Nc3ccc(N4CCN(C)CC4)cc3)ncc2S1(=O)=O [Example 81, N-cyclohexyl-2-{[4-(4-methylpiperazin-1-yl)phenyl]amino}-6-propyl-6H-pyrimido[5,4-c][2,1]benzothiazine-8-carboxamide 5,5-dioxide]
20 | 11 | CN1c2ccccc2-c2nc(Nc3ccc(CN4CCCC4)cc3)ncc2S1(=O)=O [Example 58, 6-methyl-N-[4-(pyrrolidin-1-ylmethyl)phenyl]-6H-pyrimido[5,4-c][2,1]benzothiazin-2-amine 5,5-dioxide]
21 | 5 | CCCN1c2cc(-c3cn[nH]c3)ccc2-c2nc(Nc3ccc(N4CCN(C)CC4)cc3)ncc2S1(=O)=O [Example 70, N-[4-(4-methylpiperazin-1-yl)phenyl]-6-propyl-8-(1H-pyrazol-4-yl)-6H-pyrimido[5,4-c][2,1]benzothiazin-2-amine 5,5-dioxide]
22 | 4 | CCCN1c2ccc(-c3cccc(C(=O)NC)c3)cc2-c2nc(Nc3ccc(N4CCN(C)CC4)cc3)ncc2S1(=O)=O [Example 100, N-methyl-3-(2-{[4-(4-methylpiperazin-1-yl)phenyl]amino}-5,5-dioxido-6-propyl-6H-pyrimido[5,4-c][2,1]benzothiazin-9-yl)benzamide]
23 | 1.1 | C=CCN1c2ncccc2-c2nc(Nc3ccc(N4CCCN(C)CC4)c(C)c3)ncc2S1(=O)=O [Example 53, 6-allyl-N-[3-methyl-4-(4-methyl-1,4-diazepan-1-yl)phenyl]-6H-pyrido[2,3-c]pyrimido[4,5-e][1,2]thiazin-2-amine 5,5-dioxide]
24 | 1 | C=CCN1c2ccccc2-c2nc(Nc3ccc4c(c3)CNCC4)ncc2S1(=O)=O [Example 26, 6-allyl-N-(1,2,3,4-tetrahydroisoquinolin-7-yl)-6H-pyrimdio[5,4-c][2,1]benzothiazin-2-amine 5,5-dioxide]

Source: US8716297B2, “Chemical entities to be used for Wee1 inhibition for the treatment of cancer” (AbbVie Inc., priority 2011, dated 2014)
